Consider one molecule from patent US12527849B2, “Apparatus for determining administration form of a composition of an engineered virus-based nanoparticle for a treatment of an autoimmune condition” (Diamante Srl, priority 2021, dated 2026).

In one test the test system is TNF-α. Kind of test: Cytokine ELISA in CIA mice, day 60: TNF-α. The format is in vivo. The source says: (§1) With continued reference to FIG. 1, in some embodiments, administration 116 may be done to an animal. As a non-limiting example, the animal may include a mouse, a fish, a rabbit, human, and the like. As a non-limiting example, administration 116 of composition of the engineered virus-based nanoparticle for a treatment of an autoimmune condition may be done to dilute, brown, and non-agouti (DBA) mice based on their susceptibility to collagen-induced arthritis (CIA). Female DBA/1 mice 6 to 8 weeks of age may be maintained under specific pathogen-free conditions. CIA may be induced by the intradermal tail base injection of 100 μg of chicken type II collagen (Sigma-Aldrich) as previously described. Five mice per group may be immunized on days 0 and 21 to induce arthritis. The onset of disease may be confirmed on the day that swelling or erythema may be observed in any paw, typically 4 to 10 days after the second immunization. […] CIA may be assessed using a macroscopic score system based on the visual identification of arthritic limbs. The clinical severity of arthritis may be evaluated as follows: Each mouse may be inspected every 2 to 3 days for three different parameters: (i) swelling of the hind ankle and foot, measured with calipers; (ii) erythema of each leg; and (iii) swelling of the fingers. The RA index for each mouse was expressed as the mean of the three scores from the individual parameters. At the end of the experiment (60 days), we determined the proportion of CD25+Foxp3+ cells in the lymph nodes and measured cytokine titers in the lymph nodes, joints, and serum.
(§2) With continued reference to FIG. 1, in some embodiments, processor 104 may determine critical administration 124 as a function of a cytokine profile and a proportion of CD25^+ Foxp3^+ cells. […] In some embodiments, to quantify cytokines in DBA mice, joint tissues may be pulverized and resuspended in 1 ml of lysis medium per 100-mg joint weight for 60 min at 37′C, followed by centrifugation to remove debris. […]
In general terms: ELISA stands for enzyme-linked immunosorbent assay.

The next test relates to IL-1β. Kind of test: Cytokine ELISA in CIA mice, day 60: IL-1β. Type of test: in vivo.
From the text: as §1, §2

[1] abbreviates: joint supernatant, CIA mice, day 60, mean n=3.
Setting [2] is: lymph node supernatant, CIA mice, day 60, mean n=3.
The mark [3] stands for this setting: serum pooled from five CIA mice, day 60.

With `C[C@@H]1C[C@H]2[C@@H]3CCC4=CC(=O)C=C[C@]4(C)[C@@]3(F)[C@@H](O)C[C@]2(C)[C@@]1(O)C(=O)CO` [Dexamethasone, dexamethasone], in the test on TNF-α (setting [1]), the “TNF-α J” value was 49.20 pg/mL. Further, the “TNF-α LN” value in the test with TNF-α (setting [2]) was determined as 107.90 pg/mL. The “TNF-α S” value in the test with TNF-α (setting [3]) was 24.2 pg/mL. Besides, in the test with IL-1β (setting [1]), the “IL-1β J” value was 38.43 pg/mL. Also, in the test with IL-1β (setting [2]), the “IL-1β LN” value came to 65.63 pg/mL. Also, the “IL-1β S” value with IL-1β (setting [3]) was 26.6 pg/mL.
